Holding throughout (type): cell-based
Experiment [1] deals with 6 B-Raf mutant colorectal cancer cell lines. Briefly: Cell proliferation over the panel of 6 cell lines. Particulars: single agent. How it is done:
(§1) The compounds were dissolved in 100% DMSO (Sigma, Catalog number D2650) at concentrations of 20 mM and stored at −20° C. until use. Compounds were arrayed in drug master plates (Greiner, Catalog number 788876) and serially diluted 3-fold (7 steps) at 2000× concentration.
(§2) Colorectal cancer cell lines used for this study were obtained, cultured and processed from commercial vendors ATCC, CellBank Australia, and HSRRB (Table 1). All cell line media were supplemented with 10% FBS (HyClone, Catalog number SH30071.03). […]
(§3) Cell lines were cultured in 37° C. and 5% CO2 incubator and expanded in T-75 flasks. In all cases cells were thawed from frozen stocks, expanded through ≥1 passage using 1:3 dilutions, counted and assessed for viability using a ViCell counter (Beckman-Coulter) prior to plating. […] All cell lines were determined to be free of mycoplasma contamination as determined by a PCR detection methodology performed at Idexx Radil (Columbia, Mo., USA) and correctly identified by detection of a panel of SNPs.
(§4) Images were analyzed after adapting previously described methods (Horn, Sandmann et al. 2011) and using the Bioconductor package EBImage in R (Pau, Fuchs et al. 2010). Objects in both channels, DAPI (for Hoechst/DNA) and FITC (for Caspase 3/7), were segmented separately by adaptive thresholding and counted. […]

The next experiment has as its system LS411N. Description: Cell proliferation (cell count by microscopy) in LS411N. Conditions: Homo sapiens, LS-411N; single agent; LS411N (BRAF); 72 h; 50% of cell counts relative to DMSO. How it is done: as §1, §2, §3, §4
In the next experiment the test system is HT-29. Description: Cell proliferation (cell count by microscopy) in HT-29. Particulars: Homo sapiens; single agent; HT-29 (BRAF, PIK3CA); 72 h; 50% of cell counts relative to DMSO. As to the method:
as §1, §2, §3, §4

The test system of a further experiment is COLO-205. Briefly: Cell proliferation (cell count by microscopy) in COLO-205. Particulars: Homo sapiens; single agent; COLO-205 (BRAF); 72 h; 50% of cell counts relative to DMSO. As to the method:
as §1, §2, §3, §4

A further experiment relates to LIM2551. Briefly: Cell proliferation (cell count by microscopy) in LIM2551. Conditions: single agent; LIM2551 (BRAF, PIK3CA); 72 h; 50% of cell counts relative to DMSO. As to the method:
as §1, §2, §3, §4

In another experiment the test system is RKO. Description: Cell proliferation (cell count by microscopy) in RKO. Particulars: Homo sapiens; single agent; RKO (BRAF, PIK3CA); 72 h; 50% of cell counts relative to DMSO. How it is done:
as §1, §2, §3, §4

The next experiment deals with OUMS-23. Description: Cell proliferation (cell count by microscopy) in OUMS-23. Conditions: single agent; OUMS-23 (BRAF); 72 h; 50% of cell counts relative to DMSO. How it is done:
as §1, §2, §3, §4

The text below walks through data of patent publication US20210186973A1, “COMBINATION OF RIBOCICLIB AND DABRAFENIB FOR TREATING OR PREVENTING CANCER” (NOVARTIS AG, priority 2015, published 2021).

Structures are written as SMILES. “Also recorded” adds a separate entry of the source.

As to `Cc1nc(NC(=O)N2CCC[C@H]2C(N)=O)sc1-c1ccnc(C(C)(C)C(F)(F)F)c1` [BYL719, (S)-Pyrrolidine-1,2-dicarboxylic acid 2-amide 1-({4-methyl-5-[2-(2,2,2-trifluoro-1,1-dimethyl-ethyl)-pyridin-4-yl]-thiazol-2-yl}-amide)], the “IC50s (in words)” value in experiment [1] (in the PIK3CA mutant cells) is given as “micromolar”.

As a reminder, the IC50 is the concentration that gives 50% inhibition. In the case of `CC(C)(C)c1nc(-c2cccc(NS(=O)(=O)c3c(F)cccc3F)c2F)c(-c2ccnc(N)n2)s1` [Dabrafenib, N-{3-[5-(2-Amino-4-pyrimidinyl)-2-(1,1-dimethylethyl)-1,3-thiazol-4-yl]-2-fluorophenyl}-2,6-difluorobenzenesulfonamide], the concentration for half-maximal inhibition (IC50) was 36 nM in the experiment on LS411N; 16 nM with HT-29; 7 nM in the experiment on COLO-205; 18 nM with LIM2551; 240 nM with RKO; > 1000 nM in the experiment with OUMS-23. The “IC50s (in words)” value in experiment [1] (all but one cell line (ODMS-23)) is listed as “nanomolar to low micromolar; also recorded: nanomolar to sub-micromolar”.
